Here are results for 8 compounds from ChEMBL document CHEMBL1201862, “PubChem BioAssay data set” (2004).

Among the test systems are A549; ACHN; DU-145; EKVX; HCC 2998; HCT-116; HT-29; Hs-578T; IGROV-1; M14; MCF7; MDA-N; NCI-H23; SF-295; SK-MEL-2; SK-MEL-5; SK-OV-3; T47D; UACC-62; HL-60.
Common to all, as to test: NCI anticancer screen, dose series, 48 h

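Each compound was tested at five concentrations against cells in 96-well plates for 48 hours. GI50: concentration for 50% inhibition of growth.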 Activity calls are given as the source filed them. No stated cut-off is given here; in the data, active = GI50 up to about 1.1 µM and inactive = higher.

Regarding `CCOC(=O)C(C)c1nc2cc(F)c(N3CCOCC3)cc2[nH]c1=O` (centres undefined), the GI50 with A549, in the assay on ACHN, in the assay with DU-145, with EKVX, in the assay with HCC 2998 and in the assay with HCT-116 was > 100 µM (inactive) in each case. Also, the GI50 in the assay with HT-29, in the assay on Hs-578T, in the assay on IGROV-1, with M14, with MCF7 and in the assay on MDA-N was > 100 µM (inactive) each time. Also, the GI50 is > 100 µM (inactive) with NCI-H23; > 100 µM (inactive) in the assay on SF-295; > 100 µM (inactive) with SK-MEL-2; 54.1 µM (inactive) in the assay with SK-MEL-5; > 100 µM (inactive) in the assay with SK-OV-3; 51.9 µM (inactive) with T47D. Further, the GI50 in the assay on UACC-62 is > 100 µM (inactive).
For `CCOC(=O)C1=CC(C)(C(=O)OCC)Nc2c(nc(OC)n(C)c2=O)N1` (centres undefined), the GI50 in the assay with A549, with ACHN, in the assay with DU-145, in the assay with EKVX, in the assay on HCC 2998 and in the assay on HCT-116 was > 10 µM (inactive) each time. The GI50 in the assay with HT-29, with Hs-578T, in the assay with IGROV-1, in the assay on M14, in the assay with MCF7 and with MDA-N was > 10 µM (inactive) each time. Further, the GI50 in the assay on NCI-H23, in the assay with SF-295, with SK-MEL-2, with SK-MEL-5, with SK-OV-3 and with T47D was > 10 µM (inactive) throughout.
As to `O=C1c2ccccc2-n2c1nc1cc(Cl)ccc1c2=O`, the GI50 in the assay with A549 was 66.8 µM (inactive); in the assay with ACHN it was > 100 µM (inactive); in the assay on DU-145, 24.1 µM (inactive); in the assay on EKVX, > 100 µM (inactive); in the assay with HCC 2998 it was > 100 µM (inactive); with HCT-116, > 100 µM (inactive). Also, the GI50 was 61.9 µM (inactive) in the assay on HT-29; 20.2 µM (inactive) in the assay on Hs-578T; 33.3 µM (inactive) in the assay with IGROV-1; 15.8 µM (inactive) in the assay on M14; > 100 µM (inactive) in the assay on MCF7; 14.5 µM (inactive) in the assay with MDA-N. Besides, the GI50 in the assay on NCI-H23 was 11.8 µM (inactive); with SF-295 it was 50.7 µM (inactive); in the assay with SK-MEL-2 it was 43.9 µM (inactive); in the assay with SK-MEL-5 it was 20 µM (inactive); in the assay on SK-OV-3 it was > 100 µM (inactive); in the assay with T47D it was 0.807 µM (active). Besides, in the assay on UACC-62, the GI50 was 11.2 µM (inactive).
`COC(=O)CN1CCN(c2cccc3c2CCCC3)CC1`: the GI50 is 69.5 µM (inactive) in the assay on A549; 72.9 µM (inactive) with ACHN; 66.2 µM (inactive) in the assay on EKVX; 29.6 µM (inactive) in the assay with HCC 2998; 32.4 µM (inactive) in the assay with HCT-116; 35.2 µM (inactive) with HL-60. Also, the GI50 with HT-29 was 18.2 µM (inactive); in the assay with Hs-578T it was > 100 µM (inactive); in the assay with IGROV-1 it was > 100 µM (inactive); with M14, 19.4 µM (inactive); in the assay on MCF7, 37 µM (inactive); with MDA-N it was > 100 µM (inactive). Moreover, the GI50 is 13.9 µM (inactive) in the assay on NCI-H23; > 100 µM (inactive) in the assay with SF-295; > 100 µM (inactive) in the assay on SK-MEL-2; 23.2 µM (inactive) with SK-MEL-5; 98.2 µM (inactive) in the assay with T47D; > 100 µM (inactive) in the assay with UACC-62.
For `Cc1nc(-c2ccc([N+](=O)[O-])cc2)cn2c1nc1ccccc12`, the GI50 in the assay on A549, in the assay with DU-145, with EKVX, in the assay on HCT-116, with HL-60 and in the assay with HT-29 was > 100 µM (inactive) in each case. Moreover, the GI50 is > 100 µM (inactive) in the assay on Hs-578T; > 100 µM (inactive) in the assay on IGROV-1; 70.3 µM (inactive) in the assay on M14; 58.3 µM (inactive) with MCF7; > 100 µM (inactive) with MDA-N; > 100 µM (inactive) with NCI-H23. In addition, the GI50 is 76.9 µM (inactive) in the assay on SF-295; 31.1 µM (inactive) in the assay on SK-MEL-2; 18.9 µM (inactive) in the assay with SK-OV-3; 8.81 µM (inactive) with T47D; 15.9 µM (inactive) in the assay on UACC-62.
With `O=C1/C(=C/c2ccco2)N=C(c2ccccc2)N1c1cc2cc(Sc3ccccc3)ccc2[nH]1`, the GI50 in the assay with A549 was > 25 µM (inactive); in the assay on ACHN it was > 25 µM (inactive); in the assay on DU-145, > 25 µM (inactive); with EKVX, 15.5 µM (inactive); in the assay with HCT-116, > 25 µM (inactive); in the assay on HL-60, 0.214 µM (active). Besides, the GI50 in the assay with HT-29 is 20 µM (inactive); in the assay on Hs-578T, 15.3 µM (inactive); in the assay on IGROV-1, > 25 µM (inactive); with M14, 21.6 µM (inactive); with MCF7, 11 µM (inactive); in the assay with MDA-N it was 7.21 µM (inactive). In addition, the GI50 was > 25 µM (inactive) with NCI-H23, 7.53 µM (inactive) with SK-MEL-2, 15.8 µM (inactive) with T47D and 21.8 µM (inactive) with UACC-62.
For the compound `O=C(Nc1sccc1S(=O)(=O)c1ccccc1)c1ccccc1`, the GI50 in the assay on A549, with ACHN, in the assay on DU-145, in the assay on EKVX, with HCC 2998 and in the assay on HCT-116 was > 100 µM (inactive) throughout. The GI50 in the assay with HT-29 is > 31.6 µM (inactive); in the assay with Hs-578T, > 100 µM (inactive); in the assay with IGROV-1, > 100 µM (inactive); with M14, > 100 µM (inactive); in the assay on MCF7, > 100 µM (inactive); with MDA-N, 3.73 µM (inactive). Besides, the GI50 with NCI-H23 is > 100 µM (inactive); with SF-295, > 100 µM (inactive); in the assay with SK-MEL-2, > 100 µM (inactive); with SK-MEL-5, > 79.3 µM (inactive); in the assay on SK-OV-3, > 100 µM (inactive); in the assay on T47D it was > 100 µM (inactive). For the same compound, in the assay with UACC-62, the GI50 is > 100 µM (inactive).
Take `Clc1ccc(NCc2nnc(CCCCCCCCc3nnc(CNc4ccc(Cl)cc4)o3)o2)cc1`: the GI50 with A549, with ACHN, in the assay with DU-145, in the assay with EKVX, in the assay with HCC 2998 and with HCT-116 was > 100 µM (inactive) in each case. Moreover, the GI50 in the assay on HT-29, with Hs-578T, in the assay with M14, with MCF7, in the assay on MDA-N and with NCI-H23 was > 100 µM (inactive) each time. The GI50 with SF-295, in the assay on SK-MEL-2, in the assay on SK-MEL-5, in the assay with SK-OV-3, with T47D and in the assay with UACC-62 was > 100 µM (inactive) in each case.
